From patent publication US10421944B2, “Method for producing neural stem cells using synthetic peptide” (TOAGOSEI CO. LTD., priority 2015, dated 2019) come the findings set out here.

The assay concerns CCD1079SK cells (fibroblasts from human skin tissue). As to the kind of experiment: Test to evaluate neural stem cell-inducing activity (fluorescent immunostaining of nestin and GFAP in fibroblasts). In kind it is cell-based. As to conditions: peptide 10 μM, 18 days of culture at 30° C., compared with peptide-free group. As to the method: Neural stem cells were induced (prepared) from fibroblasts using the neural stem cell-inducing synthetic peptide (Sample 1) obtained in Example 1 above. The test cells were CCD1079SK cells (ATCC™ CRL-2097), a cultured cell line of fibroblasts from human skin tissue. The test details were as follows.
Previously frozen CCD1079SK cells were seeded to a cell density of 1.2×10^5/well in a cell culture chamber (also called a slide chamber). The cell culture chamber had one well per slide (culture area 19 mm×44 mm). Specifically, the thawed CCD1079SK cells were suspended in ordinary Dulbecco's modified Eagle's medium (DMEM) to prepare a cell suspension with a cell density of 1.2×10^5/mL, and 1 mL of this cell suspension was seeded in the aforementioned cell culture chamber. The DMEM medium was ordinary DMEM (Wako Pure Chemical Industries, Ltd., Cat. No. 043-30085) with 10% FBS, 100 units/mL penicillin and 100 μg/mL streptomycin added thereto. The CCD1079SK cells seeded in the cell culture chamber were pre-cultured for several hours (about six hours) until the cells adhered to the bottom of the culture container in the incubator under conditions of 5% CO2, 37° C. […]

Take LLLLLLVGLTAPAGKKRTLRKNDRKKR [Sample 1]: the “expression of neural stem cell marker protein nestin (cells with increased quantities of nestin protein)” value (confocal laser microscopy (FIG. 1 vs FIG. 3)) is “more cells with increased quantities of nestin protein”. Moreover, the “expression of neural stem cell marker protein GFAP (cells with increased quantities of GFAP)” value (confocal laser microscopy (FIG. 2 vs FIG. 4)) is “more cells with increased quantities of nestin protein and GFAP”.
